In patent US20210284691A1, “CBX8 CHROMDOMAIN INHIBITORS AND THE USES THEREOF” (Purdue Research Foundation, priority 2019, published 2021):
Square brackets hold non-standard residues; d marks the D form. Peptide text beside a SMILES is read from it. * marks the point of attachment. Tyr(3-Cl) = N[C@@H](Cc1ccc(O)c(Cl)c1)C(=O)O; Benzoyl(3,5-Cl2) = O=C(c1cc(Cl)cc(Cl)c1)*; Lys(Et2) = CCN(CC)CCCC[C@H](N)C(=O)O; Gly(cPent) = N[C@H](C(=O)O)C1CCCC1; NH(propargyl) = C#CCN*

Tests used:
Assay type in all cases: cell-based
[1] = molecular target: T1, CBX7 binding to chromatin (Homo sapiens, UniProt O95931); assay: ChIP-qPCR in Hs68 fibroblast cells; conditions: 100 μM, 4 h
T1 construct: endogenous in cells; host or cells: Hs68 fibroblasts (A17); HEK293T (A20)
T1 sequence (O95931 whole entry): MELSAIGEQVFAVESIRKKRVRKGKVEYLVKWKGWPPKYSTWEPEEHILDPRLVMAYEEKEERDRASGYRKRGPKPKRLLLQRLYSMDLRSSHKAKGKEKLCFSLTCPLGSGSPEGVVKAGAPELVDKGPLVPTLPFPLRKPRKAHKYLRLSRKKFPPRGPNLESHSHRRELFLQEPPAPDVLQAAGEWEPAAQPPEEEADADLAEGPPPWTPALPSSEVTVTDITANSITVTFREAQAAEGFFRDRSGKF
Description: ChIP: Hs68 cells were seeded at 4×10^6 in a 10 cm cell culture plates 16 hours prior to treatment. Cells were treated with 100 μM SW2-110A or DMSO for four hours. ChIP was performed as described in Connelly et al., 2018. Birefly, cells were washed with PBS and fixed on the plate with CiA Fix buffer (50 mM HEPES, pH 8.0, 1 mM EDTA, 0.5 mM ETGA, 100 mM NaCl) and 1% formaldehyde for 10 min at room temperature. Crosslinking was quenched with 0.125 M glycine for 5 min at 4° C. Cells were washed once with PBS and lifted off the plate then resuspended in CiA NP Rinse buffer 1 (50 mM HEPES pH 8.0, 140 mM NaCl, 1 mM EDTA, 10% glycerol, 0.5% NP-40, 0.25% Triton X) for 10 min. Cells were pelleted at 1200×g for 5 min at 4° C. The supernatant was removed, and the cells were resuspended in CiA NP rinse buffer 2 (10 mM Tris pH 8.0, 1 mM EDTA, 0.5 mM EGTA, 200 mM NaCl). Cells were collected by centrifugation, 1200×g for 5 min. Supernatant was removed and the cells were washed twice with shearing buffer (0.1% SDS, 1 mM EDTA, 10 mM Tris HCl, pH 8.0). Cells were resuspended in shearing buffer and sonicated for 7 min with the probe (Branson). Lysate was centrifuged at 21,000×g for 15 min to remove debris. […]
qPCR: qPCR was performed on the isolated ChIP DNA using SYBR master mix (Thermo) and run on the BioRad CFX thermo cycler. […] Enrichment was determined by percent input. […]

[2] = molecular target: T2, CBX2 and H3K27me3 at KLK3/TMPRSS2 enhancers and promoters (Homo sapiens, UniProt Q14781); assay: ChIP-qPCR in LNCaP_NED cells; conditions: 10 μM, 4 hours
T2 construct: endogenous in cells
T2 sequence (Q14781 whole entry): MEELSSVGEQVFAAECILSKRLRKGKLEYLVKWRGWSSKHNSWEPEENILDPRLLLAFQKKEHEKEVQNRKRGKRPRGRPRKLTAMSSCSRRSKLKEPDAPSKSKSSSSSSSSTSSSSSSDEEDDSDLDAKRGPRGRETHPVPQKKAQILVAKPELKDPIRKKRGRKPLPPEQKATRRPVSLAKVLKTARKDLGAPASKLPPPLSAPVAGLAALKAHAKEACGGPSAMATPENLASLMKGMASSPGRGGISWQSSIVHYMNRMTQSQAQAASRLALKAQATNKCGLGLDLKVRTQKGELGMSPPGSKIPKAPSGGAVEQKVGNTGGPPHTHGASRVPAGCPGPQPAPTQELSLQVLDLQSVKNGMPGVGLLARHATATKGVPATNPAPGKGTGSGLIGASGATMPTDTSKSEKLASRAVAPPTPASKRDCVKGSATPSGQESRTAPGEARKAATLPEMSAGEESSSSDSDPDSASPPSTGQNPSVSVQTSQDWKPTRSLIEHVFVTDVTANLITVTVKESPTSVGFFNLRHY
Excerpt: FIG. 12A). Neuroendocrine differentiation (NED) of prostate cancer induced by androgen deprivation. Representative pictures of LNCaP cells treated with normal media or charcoal-stripped serum (CSS) media for 6 days to induce neuroendocrine differentiation (LNCaP_NED). FIG. 12B). Transcriptional fold changes of KLK3/TMPRSS2/ENO2/CHGA were quantified normalized to control gene YWHAZ upon CSS media treatment for 6 or 9 days. FIG. 12C). Western blotting of CBX paralogs in LNCaP and LNCaP_NED cells generated from 14-day CSS treatment. FIG. 12D). Cell proliferation of LNCaP_NED following 5 days incubation with 2 or 10 μM SW2_152F. DMSO was used as negative control. FIG. 12E). LNCaP_NED cells were treated with 10 μM SW2_152F for 24 h-96 h. Cell morphology pictures were captured starting from 24 h. Average cell size were plotted at 24 h or 48 h for both DMSO group and compound treated group. FIG. 12F). LNCaP_NED cells were treated with 10 μM or 50 μM SW2_152F for 48 hours. […] Binding of H3K27me3 and CBX2 at specific genomic sites (KLK3/TMPRSS2, e: enhancer, p: promoter) were evaluated using chromatin immunoprecipitation-qPCR. For all experiments in the figure, error bars represent SEM n=3 biological replicates, p-values were calculated using two-tailed Student's t-test, *=p<0.05, **=p<0.01, ***=p<0.001, ****=p<0.0001. […]

[3] = molecular target: T3, CBX8 bulk chromatin binding (Homo sapiens, UniProt Q9HC52); assay: Sequential salt extraction (SSE) in HEK293T cells; conditions: 10 μM
T3 construct: endogenous in cells; host or cells: HEK293T (A19)
T3 sequence (Q9HC52 whole entry): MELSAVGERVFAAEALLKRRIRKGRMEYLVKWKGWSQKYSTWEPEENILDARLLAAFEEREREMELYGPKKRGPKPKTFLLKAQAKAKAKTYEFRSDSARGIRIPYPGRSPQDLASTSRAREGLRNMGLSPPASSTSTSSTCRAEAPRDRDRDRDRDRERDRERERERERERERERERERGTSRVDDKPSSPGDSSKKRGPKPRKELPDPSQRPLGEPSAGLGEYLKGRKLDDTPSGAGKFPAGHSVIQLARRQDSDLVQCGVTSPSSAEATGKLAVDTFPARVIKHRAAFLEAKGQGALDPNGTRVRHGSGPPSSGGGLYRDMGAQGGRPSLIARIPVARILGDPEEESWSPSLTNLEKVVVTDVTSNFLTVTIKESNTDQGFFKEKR

[4] = molecular target: T4, CBX2 bulk chromatin binding (Homo sapiens, UniProt Q14781); assay: Sequential salt extraction (SSE) in HEK293T cells; conditions: 10 μM
T4 construct: endogenous in cells; host or cells: HEK293T (A21); K562 (A22)
T4 sequence (Q14781 whole entry): as the sequence (Q14781 whole entry) above

[5] = system: H3K27me3, AR, ENO2, N-Myc, CBX2 protein levels; assay: Western blotting of protein expression in VCaP_NED cells
Excerpt: FIG. 12A). Neuroendocrine differentiation (NED) of prostate cancer induced by androgen deprivation. Representative pictures of LNCaP cells treated with normal media or charcoal-stripped serum (CSS) media for 6 days to induce neuroendocrine differentiation (LNCaP_NED). FIG. 12B). Transcriptional fold changes of KLK3/TMPRSS2/ENO2/CHGA were quantified normalized to control gene YWHAZ upon CSS media treatment for 6 or 9 days. FIG. 12C). Western blotting of CBX paralogs in LNCaP and LNCaP_NED cells generated from 14-day CSS treatment. FIG. 12D). Cell proliferation of LNCaP_NED following 5 days incubation with 2 or 10 μM SW2_152F. DMSO was used as negative control. FIG. 12E). LNCaP_NED cells were treated with 10 μM SW2_152F for 24 h-96 h. Cell morphology pictures were captured starting from 24 h. Average cell size were plotted at 24 h or 48 h for both DMSO group and compound treated group. FIG. 12F). LNCaP_NED cells were treated with 10 μM or 50 μM SW2_152F for 48 hours. Transcriptional fold change of genes (KLK3/TMPRSS2/AR/CBX2) were normalized to YWHAZ in LNCaP_NED cells with SW2_152F treatment or DMSO. FIG. 12G). LNCaP cells were treated with DMSO. LNCaP_NED cells were treated with DMSO, 10 μM GSK343 or 10 μM SW2_152F for 48 hours. Whole cell lysates were extracted for western blotting. FIG. 12H). LNCaP_NED cells were treated with DMSO or 10 μM SW2_152F for 4 hours before harvest. Binding of H3K27me3 and CBX2 at specific genomic sites (KLK3/TMPRSS2, e: enhancer, p: promoter) were evaluated using chromatin immunoprecipitation-qPCR. For all experiments in the figure, error bars represent SEM n=3 biological replicates, p-values were calculated using two-tailed Student's t-test, *=p<0.05, **=p<0.01, ***=p<0.001, ****=p<0.0001.
In another androgen-sensitive prostate cancer cell line, VCaP, 6 days of androgen deprivation decreases AR protein expression and increases ENO2, N-Myc, H3K27me3 and CBX2 protein expression (FIG. 12G), similar to published findings (Y. Zhang, et al., 2018). Using this NED cell line (VCaP_NED), we tested how addition of EZH2 inhibitor GSK343 or CBX2 inhibitor SW2_152F affects protein expression changes during NED.

CBX7 binding at target loci, ChIP-qPCR [1]: not CBX7 binding
CBX8 binding to chromatin, SSE [3]: only a modest change
Structure (SMILES): C#CCNC(=O)[C@H](CO)NC(=O)[C@H](CCCCN(CC)CC)NC(=O)[C@@H](NC(=O)[C@@H](NC(=O)[C@H](Cc1ccc(O)c(Cl)c1)NC(=O)c1cc(Cl)cc(Cl)c1)C1CCCC1)[C@@H](C)CC [SW2_152F] ({Benzoyl(3,5-Cl2)}-[Tyr(3-Cl)][Gly(cPent)]I[Lys(Et2)]S-{NH(propargyl)})
CBX2 binding at AR target genes, ChIP-qPCR [2]: abrogates CBX2 binding at the KLK3 (PSA)/TMPRSS2 enhancers and promoters
H3K27me3 enrichment at AR target genes, ChIP-qPCR [2]: reduces H3K27me3 enrichment specifically at these sites
CBX2 binding to chromatin, SSE [4]: dramatically abrogated CBX2 binding to chromatin
H3K27me3 levels ([5]; 10 μM, 48 hours): does not
AR, ENO2 and N-Myc expression ([5]; compared to DMSO): increase AR and decrease ENO2 and N-Myc expression
